Assay results as given in the RepoRT retention time repository (doi:10.1021/acs.analchem.1c00972).

Assay: RP, Waters ACQUITY UPLC BEH C18, 100 × 1 mm, 1.7 µm, 50 °C, 0.3 mL/min, estimated dead time 0.17 min; A: water + 0.1% formic acid + 20 mM ammonium formate; B: methanol + 0.1% formic acid + 20 mM ammonium formate; gradient (min/%B) 0/0 15/100 21/100 22/0 30/0
Settings: stereoisomer not certain

LC retention time [min] | SMILES
11.5 | O=[N+]([O-])c1ccc(C2OC2c2ccc([N+](=O)[O-])cc2S(=O)(=O)O)c(S(=O)(=O)O)c1 (stereo not drawn)
13.3 | CC(C)(C)Nc1nc(=O)[nH]c(=O)[nH]1
11.5 | CC1(C)C2CC=C(CO)C1C2 (single isomer, unassigned; (-)) [(-)-Myrtenol]
18.5 | CC(C)(N)CN [1,2-Diamino-2-methylpropane]
6.1 | CN1CCN(C)C1=O [1,3-Dimethyl-2-imidazolidinone]
5.8 | Cn1c(=O)c2[nH]c(=O)[nH]c2n(C)c1=O [1,3-Dimethyluric acid]
12.3 | CC(C)c1ccc(NC(N)=O)cc1 [1-(4-Isopropylphenyl)-Harnstoff]
8.54 | CC(C)NC(=O)NC(C)C [1.3-Diisopropylurea]
4.8 | O=c1ccn(C2OC(CO)C(O)C2(F)F)c(=O)[nH]1 (stereo not drawn) [2',2'-Difluoro-2'-deoxyuridine]
2.8 | OCCc1cccc(O)c1 [2-(3-Hydroxyphenyl)ethanol]
6.13 | CCN(CCO)c1cccc(C)c1 [2-(N-Ethyl-N-m-toluidino)ethanol]
13.5 | CC(=O)c1ccc2ccccc2c1 [2-Acetonaphthone]
5.15 | COc1nc(C)nc(N)n1 [2-Amino-4-methoxy-6-methyl-1.3.5-triazine (MMT)]
10.1 | CCOc1ccccc1C(N)=O [2-Ethoxybenzamide]
9 | COc1cccc(CO)c1O [2-Hydroxy-3-methoxybenzyl alcohol]
3.3 | Cn1sccc1=O [2-Methyl-4-isothiazolin-3-one]
11.4 | O=C(O)c1cc(Br)c(O)c(Br)c1 [3,5-Dibromo-4-hydroxybenzoic acid]
18.3 | CCCCCCCCSCCOCCOCCOCCO [3,6,9-Trioxa-12-thia-eicosanol]
12.3 | CCCCCCCC(O)CC(=O)O (stereo not drawn) [3-Hydroxycapric acid]
11.7 | O=C(O)CCc1c[nH]c2ccccc12 [3-Indolepropionic acid]
14.3 | Cc1cccc(O)c1 [3-Methylphenol]
9.71 | Nc1ccc(C=Cc2ccc(N)cc2S(=O)(=O)O)c(S(=O)(=O)O)c1 [4,4'-Diaminostilbene-2,2'-disulfonic acid]
7.28 | Cc1c(N)c(=O)n(-c2ccccc2)n1C [4-Aminoantipyrine]

More lines, now with the values behind:

SMILES | LC retention time [min]
CNC(=O)NCc1cnc(Cl)s1 | 7.69
CC(C)C1CCC(Cc2ccc(Cl)cc2)C1(O)Cn1cncn1 (single isomer, unassigned; isomer 1) [Ipconazole (Isomer 1)] | 16.4
Nc1ccc2nc3c(N)cccc3nc2c1 [1,7-Diaminophenazine] | 8.24
Cc1nccc2ccccc12 [1-Methylisochinolin] | 6.14
Nc1ccc(Cl)cc1Cl [2,4-Dichloroaniline] | 17.6
Nc1c(Cl)cccc1Cl [2,6-Dichloroaniline] | 17.6
Nc1ccc2nc3ccc(N)cc3nc2c1 [2,8-Diaminophenazine] | 8.24
Nc1nc2ccccc2[nH]1 [2-Aminobenzimidazole] | 6.08
Cc1ccccc1O [2-Methylphenol] | 14.3
Nc1ccc(Cl)c(Cl)c1 [3,4-Dichloroaniline] | 17.6
Nc1cc(Cl)cc(Cl)c1 [3,5-Dichloroaniline] | 17.6
OCCc1c[nH]c2ccccc12 [3-(2-Hydroxyethyl)indole] | 7
Cc1ccc(N)cc1Cl [3-Chloro-4-methylaniline] | 10.1
Nc1cc(Cl)c(S(N)(=O)=O)cc1S(N)(=O)=O [4-Amino-6-chloro-1,3-benzenedisulfonamide] | 3.6
Nc1ccc(Br)cc1 [4-Bromoaniline] | 8.49
